Reference: patent US20230391783A1, “COMPOUND CONTAINING 2,4-THIAZOLE RING, PREPARATION METHOD THEREFOR, AND APPLICATION THEREOF” (SHANDONG UNIVERSITY, priority 2021, published 2023)

How the values were obtained:
[1] = system: CD-3 antibody-induced inflammatory factors IL-6, IL-2, TNF-a and IFN-y in serum; assay: Inhibition of CD-3 antibody-induced cytokine storm in mice; assay type: in vivo; conditions: 10 mg/kg via tail vein, two injections, CD-3 antibody 100 μg/kg i.p., ELISA (FIG. 5)
Description: (§1) A total of 15 healthy male mice were randomly and equally divided into 3 groups, namely, control group, model group and drug administration group, with 5 mice in each group, labeled and their body weight recorded. Respectively administered: the control group and the model group were injected with normal saline via tail vein respectively, and the administration group was injected with the compounds prepared in Examples 1-4 via tail vein respectively; the dose was 10 mg/kg (2 mg/mL; 50 μL/10 g). CD-3 antibody was injected intraperitoneally, 100 μg/kg, after 0.5 hours. A second injection of the drug was given 5 hours later. Blood was collected from the mice 9 hours later, followed by euthanasia.
(§2) ELISA was performed to determine levels of IL-6, IL-2, TNF-a and IFN-y in serum.

[2] = Pharmacokinetics and oral bioavailability in Wistar rats; assay type: in vivo; conditions: rat
Description: To prepare the standard series solution, a suitable amount of compound IA-3 was accurately weighed and placed in a 100 mL volumetric flask. The compound was dissolved in acetonitrile and diluted to the mark to produce a 25.0 μg/mL stock solution. The solution was mixed thoroughly by shaking and used for further analysis. An appropriate amount of the stock solution was taken separately, diluted with acetonitrile, and made up to the mark to prepare a series of standard solutions with concentrations of 5, 10, 25, 50, 100, 250, 500, and 1000 ng/mL. The solutions were stored in a refrigerator at 4° C. for later use.
Preparation of internal standard solution: a suitable amount of internal standard was accurately weighed and placed in a 100 mL volumetric flask. The internal standard was dissolved in acetonitrile and diluted to the mark to produce a 25 μg/mL stock solution. The solution was mixed thoroughly by shaking and used for further analysis. An accurately weighed amount of the stock solution was taken again and diluted with acetonitrile to prepare the internal standard reference solution at a concentration of 50 ng/mL. The solution was stored in a refrigerator at 4° C. for later use.
Preparation of plasma samples: 80 μL of rat plasma was taken, and 120 μL of internal standard was added. The mixture was vortexed for 2 min and centrifuged for 10 min. Then, 140 μL of the supernatant was collected and centrifuged for another 10 min. Finally, 10 μL of the supernatant was injected for analysis.
Standard Curve: 64 μL of blank rat plasma was mixed with 16 μL of the test compound standard series solution and 120 μL of acetonitrile solution containing the internal standard. The mixture was vortexed for 2 minutes and centrifuged for 10 minutes. Then, 140 μL of the supernatant was taken and centrifuged for another 10 minutes, 10 μL of the sample was injected and analyzed with HPLC-HR-MS. Instrumentation obtained the linear regression equation as the standard curve.
Sampling: eight healthy male Wistar rats were randomly divided into two groups (oral group and intravenous group), with four rats in each group. Rats were fasted for 12 h and provided with free access to water before the experiment. The oral group was administered with the test drug at a dose of 5 mg/kg, and the intravenous group was administered with 1 mg/kg. Blood samples of approximately 0.4 mL were collected from the rat orbital vein before and at 5 min, 15 min, 30 min, 1 h, 1.5 h, 2 h, 4 h, 6 h, 8 h, 10 h, and 12 h after administration, and immediately transferred to heparinized centrifuge tubes. Plasma was separated by centrifugation.
Sample determination and data processing: the rat plasma samples were processed according to the “Preparation of plasma samples” procedure and analyzed under the conditions described above. The non-compartmental model was applied to process the drug concentration data mentioned above, and the pharmacokinetic parameters were calculated using the DAD 2.0 software. The bioavailability was calculated according to the formula F=AUCig*Div/AUCiv*Dig*100%.

lymphocytes = assay: Lymphocytotoxicity test (CCK8, no stimulation factor); assay type: cell-based, rat
Description: (§3) Lymphocytotoxicity test: rats were euthanized by spinal dislocation method, their spleens were aseptically removed and ground to make a single cell suspension. After removing red blood cells with 2 mL of red blood cell lysis buffer, the cell concentration was adjusted to 2×10^6 cells/mL using RPMI-1640 medium containing 10% fetal bovine serum (FBS). Next, 100 μL of the 2×10^6 cells/mL cell suspension and 100 μL of the appropriate concentration of the tested compound were added to each well of a 96-well plate, and the plate was incubated at 37° C. with 5% CO2 for 48 hours. At the end of the incubation period, 10 μL of CCK8 was added to each well, and the plate was returned to the incubator for 5-7 hours. The OD450 value was then measured at 450 nm using an enzyme-linked immunosorbent assay reader.
In addition, the toxicity of the compounds on lymphocytes was also tested in this example. The testing method was as follows: the cell density was 3×10^6 cells/mL, and 100 μL of the cell suspension containing 3×10^5 cells/well was added to each well of a 96-well plate without any stimulation factor.

[3] = system: LPS-induced inflammatory factors IL-6, IL-2, TNF-a and IFN-y in serum; assay: Inhibition of LPS-induced cytokine storm in mice; assay type: in vivo
Description: as §1, with “the” for “the compounds”, “One hour later, LPS” for “CD-3 antibody”, “intraperitoneally at 3 mg/kg (0.3 mg/mL,” for “intraperitoneally,”, “μL/10 g).” for “μg/kg, after 0.5 hours.”
as §2
Histopathological examination was performed on the administration group of compound IA-3: mouse lungs were fixed with 4% paraformaldehyde, and histopathological changes were observed by HE.

[4] = system: lymphocytes (fresh spleen cells); assay: Lymphocyte proliferation assay (ConA-induced spleen cells); assay type: cell-based, rat
Description: as §3
Lymphocyte proliferation assay: fresh spleen cells at a concentration of 2×10^6 cells/mL were incubated for 48 hours in an incubator maintained at 37° C. and 5% CO2 for 48 hours, and the culture medium was induced for cell proliferation with 5 μg/mL of ConA, and the appropriate concentration of the tested compound was added to test its inhibitory activity on lymphocyte proliferation. The test results of some compounds are shown in the table below and figures accompanying the application: […]

[5] = male, Wistar, plasma, iv, single injection 1 mg/kg
[6] = male, Wistar, plasma, single oral administration 5 mg/kg
[7] = single oral administration 5 mg/kg

- AUC(0-t) [2, 5]: 717 ng·h/mL
- MRT [2, 5]: 30.4 min
- clearance [2, 5]: 45.1 mL/min/kg
- half-life [2, 5]: 21.6 min
- Vd ([2]; male, Wistar, plasma, iv, single injection 1 mg/kg, read-out: Vss): 1.08 L/kg
- bioavailability ([2]; male, Wistar, plasma, oral, intragastric 5 mg/kg vs intravenous 1 mg/kg, read-out: relative oral bioavailability): 22.1%
- AUC(0-inf) [2, 6]: 408 ng·h/mL
- AUC(0-t) [2, 6]: 408 ng·h/mL
- MRT [2, 6]: 76.2 min
- half-life [2, 6]: 125 min
- CL [2, 7]: 384 mL/min/kg
- Vss [2, 7]: 69.5 L/kg
SMILES: O=C(NCc1cccnc1)c1csc(-c2cnn3cccnc23)n1 [IA-3]
- reduction of CD-3 antibody-induced IL-6, IL-2, TNF-a and IFN-y levels in serum [1]: most significant effect on the reduction of the above factors
- safety index (in words) (lymphocytes): high safety index
- toxicity on lymphocytes (in words) (lymphocytes; 5, 2.5, 1.25 and 0.625 μM, no stimulation factor (FIG. 2)): less cytotoxicity
- reduction of LPS-induced IL-6, IL-2, TNF-a and IFN-y levels in serum ([3]; 10 mg/kg via tail vein, two injections, LPS 3 mg/kg i.p., ELISA (FIG. 3)): most significant effect on the reduction of the above factors
- lung histopathology (H&E) ([3]; LPS model, 10 mg/kg via tail vein (FIG. 4)): reduced the severity of lung pathology
- IC50 ([4]; Rattus norvegicus, inhibition of lymphocyte proliferation, 5 μg/mL ConA, 48 hours): 13.2 ± 2.05 nM
- Inhibition rate (%) ([4]; lymphocyte proliferation induced with 5 μg/mL ConA, 48 hours, test concentration not given): 97.09%
- inhibitory effect on lymphocyte proliferation (in words) ([4]; rat lymphocytes): particularly significant inhibitory effect on lymphocytes
